The target in test [1] is T1, ferroportin (Homo sapiens, UniProt Q9NP59).
T1 sequence (Q9NP59 1-571): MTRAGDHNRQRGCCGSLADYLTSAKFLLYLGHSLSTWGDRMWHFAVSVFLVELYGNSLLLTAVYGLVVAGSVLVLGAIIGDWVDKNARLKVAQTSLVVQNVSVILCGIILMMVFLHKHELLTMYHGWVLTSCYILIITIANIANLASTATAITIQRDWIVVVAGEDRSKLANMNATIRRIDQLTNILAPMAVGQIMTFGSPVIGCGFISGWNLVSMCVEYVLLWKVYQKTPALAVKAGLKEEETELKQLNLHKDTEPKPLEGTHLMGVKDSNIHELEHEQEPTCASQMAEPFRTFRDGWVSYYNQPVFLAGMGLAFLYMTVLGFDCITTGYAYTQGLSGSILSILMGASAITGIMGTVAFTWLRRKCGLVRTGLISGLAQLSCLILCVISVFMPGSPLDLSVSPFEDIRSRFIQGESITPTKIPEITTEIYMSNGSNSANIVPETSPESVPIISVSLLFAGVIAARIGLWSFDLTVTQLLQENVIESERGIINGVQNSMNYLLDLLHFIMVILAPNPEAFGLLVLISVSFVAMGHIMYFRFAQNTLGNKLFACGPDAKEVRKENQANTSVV
The test is described as follows: T47D cell-based ferroportin internalization assay in presence of mouse serum albumin (MSA). The arrangement: a human breast carcinoma adherent cell line which endogenously expresses ferroportin; host or cells: T47D. The essentials: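 Peptide potency for inducing ferroportin internalization was measured in T47D cells in the presence of serum albumin. Cells grown in RPMI with fetal bovine serum were seeded in 96-well plates at 80-100 k cells per well in 100 ul and rested overnight. Dilution series of test peptides were preincubated 30 min at room temperature, then added to the cells after the medium was aspirated.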

In test [2] the target is T1, ferroportin. The test is described as follows: FPN activity assay: ferroportin-GFP internalization/degradation in HEK293 cells. The format is cell-based. Further details: expressed in transfected cells. Particulars: read-out: FPN IC50. As for the experimental part:
Following internalization, the ferroporin protein is degraded.
A retro inverse peptide is a peptide with a reversed sequence in all D amino acids. An example is that Hy-Glu-Thr-His-NH2 becomes Hy-DHis-DThr-DGlu-NH2. The EC50 of these reference compounds for ferroportin internalization/degradation was determined according to the FPN activity assay described above. These peptides served as control standards.

Setting [3] is: T47D internalization assay in presence of mouse serum albumin (MSA), Table 6E.
The mark [4] stands for this setting: ferroportin-GFP internalization/degradation, HEK293 cells, Table 6E.
Where [5] appears, read: T47D cells, 0.5% mouse serum albumin, 1 hr incubation.
Setting [6] is: ferroportin-GFP HEK293 cells, at least 18 hours.

The record followed here is patent publication US20250277012A1 (Protagonist Therapeutics, Inc., priority 2021, published 2025).

Molecules are shown by their SMILES. Read-outs that look alike come from different tables or passages of the source. Starred links: 1 amine or outer side, 2 acyl side, 3 side chain; linkers in the order of their positions; H or OH if unused. Positions of bridges follow the written chain, without caps; N, C: chain ends. Non-standard residues stand in square brackets, D forms with d. Residues, ends and D or L forms follow the SMILES beside them. Groups on a side chain read outwards from the residue. *: point of attachment. X1 = C[N+](C)(CCNC(=O)CCCCCCCCCCCCCCCCC(=O)O)CC(=O)*; Bip = N[C@@H](Cc1ccc(-c2ccccc2)cc1)C(=O)O; C18 diacid = O=C(O)CCCCCCCCCCCCCCCCC(=O)*; Dip = N[C@H](C(=O)O)C(c1ccccc1)c1ccccc1; γGlu = O=C(O)[C@H](CCC(=O)[*:2])N[*:1]; NMeY = CN[C@@H](Cc1ccc(O)cc1)C(=O)O; Palmitoyl = CCCCCCCCCCCCCCCC(=O)*; NMeF = CN[C@@H](Cc1ccccc1)C(=O)O; β3hF = N[C@H](CC(=O)O)Cc1ccccc1; NMeK = CN[C@@H](CCCCN)C(=O)O; Isovaleryl = CC(C)CC(=O)*; hCys = N[C@@H](CCS)C(=O)O; Dab = NCC[C@H](N)C(=O)O; Dap = NC[C@H](N)C(=O)O; AEEA = NCCOCCOCC(=O)O; Ahx = NCCCCCC(=O)O

The IC50 is the concentration that inhibits the measured activity by half. Turning to `CC(C)CC(=O)N[C@@H](CCC(=O)O)C(=O)N[C@H](C(=O)N[C@@H](Cc1c[nH]cn1)C(=O)N[C@H](C(=O)N1CCC[C@H]1C(=O)N[C@H]1CSSC[C@@H](C(=O)N(C)[C@@H](CCCCNC(=O)COCCOCCNC(=O)COCCOCCNC(=O)[C@H](CN)NC(=O)CCCCCCCCCCCCCCCCC(=O)O)C(=O)N[C@H](CC(=O)N[C@@H](CCN)C(N)=O)Cc2ccccc2)NC1=O)C(c1ccccc1)c1ccccc1)[C@@H](C)O` [compound 264] (Isovaleryl-ETH[Dip]PCC[NMeK]([AEEA-AEEA-Dap-C18 diacid])[β3hF][Dab]-NH2; disulfide 6-7), the IC50 in test [1] (setting [3]) is 10 to 100 nM. Also, in test [2] (setting [4]), the DC50 was 10 to 100 nM.
Consider `CCCCCCCCCCCCCCCC(=O)NCCCCCC(=O)NCCCC[C@H](NC(=O)[C@@H]1CSSC[C@H](NC(=O)[C@@H]2CCCN2C(=O)[C@@H](NC(=O)[C@H](Cc2c[nH]cn2)NC(=O)[C@@H](NC(=O)[C@H](CCC(=O)O)NC(=O)CC(C)C)[C@@H](C)O)C(c2ccccc2)c2ccccc2)C(=O)N1)C(=O)N[C@H](CC(=O)N[C@H](CCCCN)C(N)=O)Cc1ccccc1` [Compd 39] (Isovaleryl-ETH[Dip]PCCK([Ahx-Palmitoyl])[β3hF][dK]-NH2; disulfide 6-7), for which the IC50 in test [1] (setting [5]) lay in the range of 1 to 10 nM. In test [2] (setting [6]), the DC50 lay in the range of 10 to 100 nM.
In the case of `CC(C)CC(=O)N[C@@H](CCC(=O)O)C(=O)N[C@H](C(=O)N[C@@H](Cc1c[nH]cn1)C(=O)N[C@H](C(=O)N1CCC[C@H]1C(=O)N[C@H]1CCSSCC[C@@H](C(=O)N[C@@H](CCCCNC(=O)COCCOCCNC(=O)COCCOCCNC(=O)[C@H](CN)NC(=O)CCCCCCCCCCCCCCCCC(=O)O)C(=O)N[C@H](CC(=O)N[C@H](CCCCN)C(N)=O)Cc2ccccc2)NC1=O)C(c1ccccc1)c1ccccc1)[C@@H](C)O` [compound 268] (Isovaleryl-ETH[Dip]P[hCys][hCys]K([AEEA-AEEA-Dap-C18 diacid])[β3hF][dK]-NH2; disulfide 6-7), the IC50 in test [1] (setting [3]) was in the range of 10 to 100 nM. Further, the DC50 in test [2] (setting [4]) lay in the range of 10 to 100 nM.
`CC[C@H](C)[C@@H]1NC(=O)[C@@H](NC(=O)[C@@H]2CCCN2C(=O)[C@@H](NC(=O)[C@H](Cc2c[nH]cn2)NC(=O)[C@@H](NC(=O)[C@H](CCC(=O)O)NC(=O)CC(C)C)[C@@H](C)O)C(c2ccccc2)c2ccccc2)CSSC[C@@H](C(N)=O)NC(=O)C[C@H](Cc2ccccc2)NC(=O)[C@H](CCCCNC(=O)COCCOCCNC(=O)COCCOCCNC(=O)CC[C@H](NC(=O)CCCCCCCCCCCCCCCCC(=O)O)C(=O)O)NC1=O` [Compd 32] (Isovaleryl-ETH[Dip]PCIK([AEEA-AEEA-γGlu-C18 diacid])[β3hF]C-NH2; disulfide 6-10): the IC50 in test [1] (setting [5]) was 100 to 500 nM. Besides, the DC50 in test [2] (setting [6]) lay within 10 to 100 nM.
Take `CCCCCCCCCCCCCCCC(=O)NCCCCCC(=O)NCCCC[C@@H](C(=O)N[C@H](CC(=O)N[C@H](CCCCN)C(N)=O)Cc1ccccc1)N(C)C(=O)[C@@H]1CSSC[C@H](NC(=O)[C@@H]2CCCN2C(=O)[C@@H](NC(=O)[C@H](Cc2cnc[nH]2)NC(=O)[C@@H](NC(=O)[C@H](CCC(=O)O)NC(=O)CC(C)C)[C@@H](C)O)C(c2ccccc2)c2ccccc2)C(=O)N1` [compound 308] (Isovaleryl-ETH[Dip]PCC[NMeK]([Ahx-Palmitoyl])[β3hF][dK]-NH2; disulfide 6-7): the IC50 in test [1] (setting [3]) lay in the range of 1 to 10 nM. The DC50 in test [2] (setting [4]) was 10 to 100 nM.
Regarding `CC(C)CC(=O)N[C@@H](CCC(=O)O)C(=O)N[C@H](C(=O)N[C@@H](Cc1cnc[nH]1)C(=O)N[C@H](C(=O)N1CCC[C@H]1C(=O)N[C@H]1CSSC[C@@H](C(=O)N(C)[C@@H](CCCCNC(=O)COCCOCCNC(=O)COCCOCCNC(=O)[C@H](CN)NC(=O)CCCCCCCCCCCCCCCCC(=O)O)C(=O)N[C@H](CC(=O)N(C)[C@@H](CCCCN)C(N)=O)Cc2ccccc2)NC1=O)C(c1ccccc1)c1ccccc1)[C@@H](C)O` [compound 292] (Isovaleryl-ETH[Dip]PCC[NMeK]([AEEA-AEEA-Dap-C18 diacid])[β3hF][NMeK]-NH2; disulfide 6-7), the IC50 in test [1] (setting [3]) was 1 to 10 nM. The DC50 in test [2] (setting [4]) is 10 to 100 nM.
With `CC(C)CC(=O)N[C@@H](CCC(=O)O)C(=O)N[C@H](C(=O)N[C@@H](Cc1c[nH]cn1)C(=O)N[C@H](C(=O)N1CCC[C@H]1C(=O)N[C@H]1CSSC[C@@H](C(=O)N[C@@H](CCCCNC(=O)COCCOCCNC(=O)COCCOCCNC(=O)CCCCCNC(=O)CCCCCCCCCCCCCCCCC(=O)O)C(=O)N[C@H](CC(=O)N[C@H](CCCCN)C(N)=O)Cc2ccccc2)NC1=O)C(c1ccccc1)c1ccccc1)[C@@H](C)O` [Compd 22] (Isovaleryl-ETH[Dip]PCCK([AEEA-AEEA-Ahx-C18 diacid])[β3hF][dK]-NH2; disulfide 6-7), the IC50 in test [1] (setting [5]) fell in the range of 10 to 100 nM. Also, the DC50 in test [2] (setting [6]) fell in the range of 10 to 100 nM.
With `CC[C@H](C)[C@@H]1NC(=O)[C@@H](NC(=O)[C@@H]2CCCN2C(=O)[C@@H](NC(=O)[C@H](Cc2c[nH]cn2)NC(=O)[C@@H](NC(=O)[C@H](CCC(=O)O)NC(=O)CC(C)C)[C@@H](C)O)C(c2ccccc2)c2ccccc2)CSSC[C@@H](C(=O)N[C@H](CC(=O)N[C@@H](CCCCNC(=O)COCCOCCNC(=O)COCCOCCNC(=O)CCCCCNC(=O)CCCCCCCCCCCCCCCCC(=O)O)C(=O)N[C@H](CCCCN)C(N)=O)Cc2ccccc2)NC1=O` [Compd 27] (Isovaleryl-ETH[Dip]PCIC[β3hF]K([AEEA-AEEA-Ahx-C18 diacid])[dK]-NH2; disulfide 6-8), in test [1] (setting [5]), the IC50 is 10 to 100 nM. In test [2] (setting [6]), the DC50 fell in the range of 10 to 100 nM.
For `CC(C)CC(=O)N[C@@H](CCC(=O)O)C(=O)N[C@H](C(=O)N[C@@H](Cc1c[nH]cn1)C(=O)N[C@H](C(=O)N1CCC[C@H]1C(=O)N[C@H]1CSSC[C@@H](C(=O)N(C)[C@@H](CCCCNC(=O)COCCOCCNC(=O)COCCOCCNC(=O)[C@H](CN)NC(=O)CCCCCCCCCCCCCCCCC(=O)O)C(=O)N[C@H](CC(=O)N[C@H](CCCCN)C(=O)N(C)[C@@H](Cc2ccc(O)cc2)C(N)=O)Cc2ccccc2)NC1=O)C(c1ccccc1)c1ccccc1)[C@@H](C)O` [compound 259] (Isovaleryl-ETH[Dip]PCC[NMeK]([AEEA-AEEA-Dap-C18 diacid])[β3hF][dK][NMeY]-NH2; disulfide 6-7), the IC50 in test [1] (setting [3]) is 10 to 100 nM. For the same compound, the DC50 in test [2] (setting [4]) was in the range of 10 to 100 nM.
`CC(C)CC(=O)N[C@@H](CCC(=O)O)C(=O)N[C@H](C(=O)N[C@@H](Cc1c[nH]cn1)C(=O)N[C@H](C(=O)N1CCC[C@H]1C(=O)N[C@H]1CSSC[C@@H](C(=O)N(C)[C@@H](CCCCNC(=O)CCCCCNC(=O)C[N+](C)(C)CCNC(=O)CCCCCCCCCCCCCCCCC(=O)O)C(=O)N[C@@H](Cc2ccc(-c3ccccc3)cc2)C(=O)N[C@H](CCCCN)C(N)=O)NC1=O)C(c1ccccc1)c1ccccc1)[C@@H](C)O` [compound 183] (Isovaleryl-ETH[Dip]PCC[NMeK]([Ahx-X1])[Bip][dK]-NH2; disulfide 6-7): the IC50 in test [1] (Table 6E, T47D internalization assay with MSA) fell in the range of 10 to 100 nM. The DC50 in test [2] (Table 6E, ferroportin-GFP internalization/degradation, at least 18 hours incubation) fell in the range of 10 to 100 nM.
As to `CC[C@H](C)[C@H](NC(=O)[C@@H]1CSSC[C@H](NC(=O)[C@@H](NC(=O)[C@H](Cc2c[nH]cn2)NC(=O)[C@@H](NC(=O)[C@H](CCC(=O)O)NC(=O)CC(C)C)[C@@H](C)O)C(c2ccccc2)c2ccccc2)C(=O)N1)C(=O)N[C@@H](CCCCNC(=O)COCCOCCNC(=O)COCCOCCNC(=O)CCCCCNC(=O)CCCCCCCCCCCCCCCCC(=O)O)C(=O)N[C@H](CC(=O)N[C@H](CCCCN)C(N)=O)Cc1ccccc1` [Compd 21] (Isovaleryl-ETH[Dip]CCIK([AEEA-AEEA-Ahx-C18 diacid])[β3hF][dK]-NH2; disulfide 5-6), the IC50 in test [1] (setting [5]) lay within 10 to 100 nM. The DC50 in test [2] (setting [6]) was 10 to 100 nM.
As for `CC(C)CC(=O)N[C@@H](CCC(=O)O)C(=O)N[C@H](C(=O)N[C@@H](Cc1c[nH]cn1)C(=O)N[C@H](C(=O)N1CCC[C@H]1C(=O)N[C@H]1CSSC[C@@H](C(=O)N(C)[C@@H](CCCCNC(=O)COCCOCCNC(=O)COCCOCCNC(=O)[C@H](CN)NC(=O)CCCCCCCCCCCCCCCCC(=O)O)C(=O)N[C@H](CC(=O)N[C@H](CCCCN)C(=O)N(C)[C@@H](Cc2ccccc2)C(N)=O)Cc2ccccc2)NC1=O)C(c1ccccc1)c1ccccc1)[C@@H](C)O` [compound 263] (Isovaleryl-ETH[Dip]PCC[NMeK]([AEEA-AEEA-Dap-C18 diacid])[β3hF][dK][NMeF]-NH2; disulfide 6-7), the 50% inhibitory concentration (IC50) in test [1] (setting [3]) lay within 10 to 100 nM. Further, the DC50 in test [2] (setting [4]) lay within 10 to 100 nM.
